Measured values taken from patent US7767659B2, “Synthesis of naturally occurring ecteinascidins and related compounds” (Pharma Mar, S.A., priority 2002, dated 2010).

Columns and labels:
[1] = test system: A-549; test: cells; conditions: Homo sapiens, A549, 48 h; for GI50: read-out: GI50 A549; for CC50: read-out: LC50 A549; for IC (TGI): read-out: TGI A549
Procedure, shortened: (§1)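 Colorimetric SRB read (490 nm) on triplicate wells after 48 h at 37 °C, 5% CO2. Dose range 10 to 10^−8 μg/ml; 5×10^3 cells/well pre-attached 18 h.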

[2] = test system: LoVo; test: cells; conditions: Homo sapiens, LoVo, 48 h; for GI50: read-out: GI50 LOVO; for CC50: read-out: LC50 LOVO; for IC (TGI): read-out: TGI LOVO
Procedure, shortened: as §1

[3] = test system: HT-29; test: cells; conditions: Homo sapiens, HT-29, 48 h; for GI50: read-out: GI50 HT29; for CC50: read-out: LC50 HT29; for IC (TGI): read-out: TGI HT29
Procedure, shortened: as §1

[4] = test system: K-562; test: Inhibition of cells growth by colorimetric assay (SRB); conditions: Homo sapiens, K562, 48 h; for GI50: read-out: GI50 K562; for CC50: read-out: LC50 K562; for IC (TGI): read-out: TGI K562
Procedure, shortened: as §1

[5] = test system: HeLa; test: as above; conditions: Homo sapiens, HeLa, 48 h; for GI50: read-out: GI50 HELA; for CC50: read-out: LC50 HELA; for IC (TGI): read-out: TGI HELA
Procedure, shortened: as §1

[6] = test system: DU-145; test: as above; conditions: Homo sapiens, DU-145, 48 h; for GI50: read-out: GI50 DU145; for CC50: read-out: LC50 DU145; for IC (TGI): read-out: TGI DU145
Procedure, shortened: as §1

[7] = test system: PANC-1; test: as above; conditions: Homo sapiens, PANC-1, 48 h; for GI50: read-out: GI50 PANC-1; for CC50: read-out: LC50 PANC-1; for IC (TGI): read-out: TGI PANC-1
Procedure, shortened: as §1

[8] = test system: HeLa-APL; test: as above; conditions: Homo sapiens, 48 h; for GI50: read-out: GI50 HELA-APL; for CC50: read-out: LC50 HELA-APL; for IC (TGI): read-out: TGI HELA-APL
Procedure, shortened: as §1

[9] = test system: SK-MEL-28; test: as above; conditions: Homo sapiens, SK-MEL-28, 48 h; for GI50: read-out: GI50 MEL-28; for CC50: read-out: LC50 MEL-28; for IC (TGI): read-out: TGI MEL-28
Procedure, shortened: as §1

[10] = test system: LNCaP; test: as above; conditions: Homo sapiens, LNCaP, 48 h; for GI50: read-out: GI50 LNCAP; for CC50: read-out: LC50 LNCAP; for IC (TGI): read-out: TGI LNCAP
Procedure, shortened: as §1

[11] = test system: IGROV-1; test: as above; conditions: Homo sapiens, IGROV-1, 48 h; for GI50: read-out: GI50 IGROV; for CC50: read-out: LC50 IGROV; for IC (TGI): read-out: TGI IGROV
Procedure, shortened: as §1

[12] = test system: IGROV-ET; test: as above; conditions: Homo sapiens, 48 h; for GI50: read-out: GI50 IGROV-ET; for CC50: read-out: LC50 IGROV-ET; for IC (TGI): read-out: TGI IGROV-ET
Procedure, shortened: as §1

[13] = test system: SK-BR-3; test: as above; conditions: Homo sapiens, SK-BR-3, 48 h; for GI50: read-out: GI50 SK-BR3; for CC50: read-out: LC50 SK-BR3; for IC (TGI): read-out: TGI SK-BR3
Procedure, shortened: as §1

[14] = test system: LoVo-Dox; test: as above; conditions: Homo sapiens, 48 h; for GI50: read-out: GI50 LOVO-DOX; for CC50: read-out: LC50 LOVO-DOX; for IC (TGI): read-out: TGI LOVO-DOX
Procedure, shortened: as §1

COc1c(C)cc2c(c1O)[C@H]1N[C@@H](C2)[C@H](C#N)N2C1[C@@H]1SCC(NC(C)=O)C(=O)OC[C@H]2c2c3c(c(C)c(OC(C)=O)c21)OCO3 (stereo partly drawn) [compound 30]
GI50 [1]: 3.47 nM | CC50 [1]: 89 nM | IC (TGI) [1]: 10.5 nM | GI50 [2]: 2 nM | CC50 [2]: 15400 nM | IC (TGI) [2]: 8.07 nM | GI50 [3]: 2.03 nM | CC50 [3]: 15400 nM | IC (TGI) [3]: 13.5 nM | GI50 [4]: 0.312 nM | CC50 [4]: 9510 nM | IC (TGI) [4]: 2.49 nM | GI50 [5]: 1.15 nM | CC50 [5]: 21.7 nM | IC (TGI) [5]: 4.53 nM | GI50 [6]: 2.63 nM | CC50 [6]: 14100 nM | IC (TGI) [6]: 7.44 nM | GI50 [7]: 2.89 nM | CC50 [7]: 15400 nM | IC (TGI) [7]: 15.5 nM | GI50 [8]: 1.86 nM | CC50 [8]: 19.5 nM | IC (TGI) [8]: 5.5 nM | GI50 [9]: 1.09 nM | CC50 [9]: 10.7 nM | IC (TGI) [9]: 3.66 nM | GI50 [10]: 96.8 nM | CC50 [10]: 147 nM | IC (TGI) [10]: 120 nM | GI50 [11]: 0.695 nM | CC50 [11]: 231 nM | IC (TGI) [11]: 3.32 nM | GI50 [12]: 25.4 nM | CC50 [12]: 15400 nM | IC (TGI) [12]: 82.4 nM | GI50 [13]: 0.527 nM | CC50 [13]: 267 nM | IC (TGI) [13]: 2.29 nM | GI50 [14]: 207 nM | CC50 [14]: 15400 nM | IC (TGI) [14]: 2070 nM

COc1c(C)cc2c(c1O)[C@H]1N[C@@H](C2)[C@H](C#N)N2C1[C@@H]1SCC(NC(=O)C(F)(F)F)C(=O)OC[C@H]2c2c3c(c(C)c(OC(C)=O)c21)OCO3 (stereo partly drawn) [compound 31]
GI50 [1]: 1.83 nM | CC50 [1]: 92.1 nM | IC (TGI) [1]: 5.97 nM | GI50 [2]: 0.688 nM | CC50 [2]: 1820 nM | IC (TGI) [2]: 3.49 nM | GI50 [3]: 1.97 nM | CC50 [3]: 3680 nM | IC (TGI) [3]: 16.2 nM | GI50 [4]: 0.226 nM | CC50 [4]: 126 nM | IC (TGI) [4]: 0.792 nM | GI50 [5]: 0.678 nM | CC50 [5]: 11.2 nM | IC (TGI) [5]: 2.04 nM | GI50 [6]: 0.444 nM | CC50 [6]: 2230 nM | IC (TGI) [6]: 0.951 nM | GI50 [7]: 0.807 nM | CC50 [7]: 1770 nM | IC (TGI) [7]: 6.68 nM | GI50 [8]: 0.576 nM | CC50 [8]: 9.96 nM | IC (TGI) [8]: 1.96 nM | GI50 [9]: 0.832 nM | CC50 [9]: 8.06 nM | IC (TGI) [9]: 2.54 nM | GI50 [10]: 0.419 nM | CC50 [10]: 90.7 nM | IC (TGI) [10]: 16.3 nM | GI50 [11]: 0.413 nM | CC50 [11]: 12.6 nM | IC (TGI) [11]: 1.07 nM | GI50 [12]: 2.91 nM | CC50 [12]: 2090 nM | IC (TGI) [12]: 7.49 nM | GI50 [13]: 0.396 nM | CC50 [13]: 60.7 nM | IC (TGI) [13]: 1.22 nM | GI50 [14]: 9.05 nM | CC50 [14]: 7210 nM | IC (TGI) [14]: 1480 nM

CCCCCCCCCCCCCCCC(=O)NC1CS[C@@H]2c3c(OC(C)=O)c(C)c4c(c3[C@H](COC1=O)N1C2[C@@H]2N[C@@H](Cc3cc(C)c(OC)c(O)c32)[C@@H]1C#N)OCO4 (stereo partly drawn) [compound 32]
GI50 [1]: 2380 nM | CC50 [1]: 7700 nM | IC (TGI) [1]: 4290 nM | GI50 [2]: 1890 nM | CC50 [2]: 7390 nM | IC (TGI) [2]: 3760 nM | GI50 [3]: 3480 nM | CC50 [3]: 10700 nM | IC (TGI) [3]: 6100 nM | GI50 [4]: 694 nM | CC50 [4]: 6810 nM | IC (TGI) [4]: 2200 nM | GI50 [5]: 253 nM | CC50 [5]: 689 nM | IC (TGI) [5]: 418 nM | GI50 [6]: 2480 nM | CC50 [6]: 9390 nM | IC (TGI) [6]: 4830 nM | GI50 [7]: 2560 nM | CC50 [7]: 8790 nM | IC (TGI) [7]: 4750 nM | GI50 [8]: 33.9 nM | CC50 [8]: 108 nM | IC (TGI) [8]: 60.5 nM | GI50 [9]: 2410 nM | CC50 [9]: 7130 nM | IC (TGI) [9]: 4140 nM | GI50 [10]: 1770 nM | CC50 [10]: 6410 nM | IC (TGI) [10]: 3360 nM | GI50 [11]: 1970 nM | CC50 [11]: 7740 nM | IC (TGI) [11]: 3910 nM | GI50 [12]: 2850 nM | CC50 [12]: 9670 nM | IC (TGI) [12]: 5240 nM | GI50 [13]: 263 nM | CC50 [13]: 7520 nM | IC (TGI) [13]: 1660 nM | GI50 [14]: 802 nM | CC50 [14]: 6760 nM | IC (TGI) [14]: 2480 nM
